Results published in publication PMC5896380, “Selective imaging of cathepsin L in breast cancer by fluorescent activity-based probes” (Chemical Science, 2018).

Key:
[1] = system: cathepsins L, V, B, S and K; test: Labeling of recombinant cathepsins by Cy5 probes, SDS-PAGE; format: biochemical, human; details: cathepsins 10 nM or 100 nM, probe/enzyme ratio 0.2, 1, 5 and 25, 30 min, Cy5 scan
Method: In experiment A, the probe concentrations were 2 nM, 10 nM, 50 nM and 250 nM, while in experiment B the probe concentrations were 20 nM, 100 nM, 500 nM and 2.5 μM. The reaction volume for all the samples was 200 μL. After 30 min, 100 μL of 3× SDS/DTT was added to the reaction mixtures, the samples were boiled for 5 min, and then 20 μL of the sample was run on 4–12% Bis-Tris Plus 15-well gels for 30 min at 200 V with 2 μL of PageRuler™ Prestained Protein Ladder. The gels were then directly scanned at 700 nm (red channel for Cy5 detection; excitation 685 nm) using an Odyssey fluorescence imaging system (LI-COR) and the images were analyzed using Image Studio software.

[2] = biological target: T1, cathepsin K (Homo sapiens, UniProt P43235); test: kobs/I of activity-based probes, cathepsin K; format: biochemical; details: Fig. 6A; pseudo-first order, probe at least 5-fold excess over cathepsin, 100 μM ACC substrate; pH 5.5, 37 °C; triplicate, SD below 20%
T1 construct: made in house
T1 sequence (P43235 115-329): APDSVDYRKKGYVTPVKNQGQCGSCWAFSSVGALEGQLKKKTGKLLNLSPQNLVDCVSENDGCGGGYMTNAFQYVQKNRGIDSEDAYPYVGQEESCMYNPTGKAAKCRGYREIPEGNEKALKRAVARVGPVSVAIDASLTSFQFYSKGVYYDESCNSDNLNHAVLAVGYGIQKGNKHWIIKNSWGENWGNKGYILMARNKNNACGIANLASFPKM
Method: (§1) All kinetic experiments were performed using fMax (Molecular Devices) and CLARIOStar (BMG LABTECH) spectrofluorimeters operating in kinetic mode using 96-well plates. ACC-labeled substrates were screened using 355 nm and 460 nm wavelengths (excitation and emission, respectively). […] The buffer was prepared at room temperature and the enzyme kinetic studies were performed at 37 °C.
(§2) For the kinetic studies, five recombinant human cathepsins (B, L, V, K and S) were expressed and purified and active site titrated using an E64 inhibitor. The kobs/I parameter was measured under pseudo-first order kinetic conditions, as described.[40] The cathepsin of interest was mixed with various concentrations of probe (at least 5-fold excess over cathepsin) and 100 μM ACC-fluorescence substrate. The experiments were repeated at least three times, and the results are presented as an average. The SDs were below 20%.

[3] = biological target: T2, cathepsin S (Homo sapiens, UniProt P25774); test: kobs/I of activity-based probes, cathepsin S; format: biochemical; details: Fig. 6A; pseudo-first order, probe at least 5-fold excess over cathepsin, 100 μM ACC substrate; pH 5.5, 37 °C; triplicate, SD below 20%
T2 construct: made in house
Method: as §1, §2

[4] = biological target: T3, cathepsin L (Homo sapiens, UniProt P07711); test: kobs/I of activity-based probes, cathepsin L; format: biochemical; details: Fig. 6A; pseudo-first order, probe at least 5-fold excess over cathepsin, 100 μM ACC substrate; pH 5.5, 37 °C; triplicate, SD below 20%
T3 construct: made in house
Method: as §1, §2

[5] = biological target: T4, cathepsin B (Homo sapiens, UniProt P07858); test: kobs/I of activity-based probes, cathepsin B; format: biochemical; details: Fig. 6A; pseudo-first order, probe at least 5-fold excess over cathepsin, 100 μM ACC substrate; pH 5.5, 37 °C; triplicate, SD below 20%
T4 construct: made in house
Method: as §1, §2

[6] = biological target: T5, cathepsin V (Homo sapiens, UniProt O60911); test: kobs/I of activity-based probes, cathepsin V; format: biochemical; details: Fig. 6A; pseudo-first order, probe at least 5-fold excess over cathepsin, 100 μM ACC substrate; pH 5.5, 37 °C; triplicate, SD below 20%
T5 construct: made in house
Method: as §1, §2

[7] = system: cathepsins L and B in MDA-MB-231 cells; test: Cathepsin labeling in MDA-MB-231 cells by SDS-PAGE and western blotting; format: cell-based, human; details: 1 μM probe, 0–18 hours; antibody overlay
Method: Low passage MDA-MB-231 cells were seeded on 12-well plates (200 000 cells per well per 1 mL of medium) and cultured in Dulbecco’s Modification of Eagle’s Medium (DMEM) supplemented with 10% fetal bovine serum, 2 mM of L-glutamine, 100 units per mL penicillin and 100 μg mL^–1 streptomycin. […] To control for non-specific binding, the cells were preincubated with E64d (25 μM) for 2 hours prior to probe addition. At various time points, the medium was aspirated and the cells were gently washed twice with 1 mL of Dulbecco’s Phosphate-Buffered Saline (DPBS) and then trypsinized, harvested and centrifuged for 10 min (500 × g). The supernatants were removed by aspiration and the pellets washed with 1 mL of DPBS and centrifuged (5 min, 500 × g). The supernatants were again removed and the pellets solubilized in 100 μL 1× SDS/DTT and then boiled for 5 min. Each sample was then cooled to room temperature and sonicated (Branson Sonifier 250, duty cycle: 50, output control: 5, cycles: 5) and then 30 μL was loaded on 4–12% Bis-Tris Plus gels and run for 30 min at 200 V with a SDS-PAGE Standards/Broad Range ladder. Proteins were transferred to a 0.2 μm nitrocellulose membrane for 1 hour at 10 V and then Ponceau staining was used to verify equal loading. Membranes were blocked with 2.5% BSA in Tris-buffered saline/0.1% v/v Tween 20 (TBS-T) for 1 hour at room temperature. Cathepsins L and B were detected by primary goat anti-hCathepsin L (R&D, AF952, 0.2 mg mL^–1, 1 : 2000) and goat anti-hCathepsin B (R&D, AF953, 0.2 mg mL^–1, 1 : 1000) antibodies, respectively, followed by incubation with a secondary antibody (IRDye® 800CW, LI-COR, donkey anti-goat, 1 : 10 000). The membranes were incubated with primary antibodies for 2 hours, and with (fluorescent) secondary antibodies for 30 min (both in TBS-T at room temperature). The fluorescence was read at 700 nm (Cyanine5; excitation 685 nm) and 800 nm (secondary antibody; excitation 785 nm) using an Odyssey fluorescence imaging system (LI-COR). The images were analyzed using Image Studio software.

[8] = system: cathepsins L and B in HEK293T cells; test: Cathepsin labeling by Cy5 probes in HEK293T cells, immunoblotting; format: cell-based, human; details: 1 μM probe, 0–18 hours
Method: Figure S3 Cathepsins labeling by two Cy5-tagged probes in HEK293T cells. Panel A. Cells (100,000/well/mL) were incubated with MP-cL3 (1µM) probe for 0-18 hours. Next, cells were harvested and subjected for Western blotting. MP-cL3 probe is very selective toward cathepsin L even after 18 hours of incubation (only residual cathepsin B activity is detected).
MDA-MB-231, thus mostly heavy chain of cathepsin L is labeled. Panel B and Panel C. Cells (100,000/well/mL) were incubated with pan-specific MP-pc1 (1µ M) probe for 0-18 hours. Next, cells were harvested and subjected […]
(1 picture or pasted object on this page, not shown here)

T5 sequence (O60911 114-334): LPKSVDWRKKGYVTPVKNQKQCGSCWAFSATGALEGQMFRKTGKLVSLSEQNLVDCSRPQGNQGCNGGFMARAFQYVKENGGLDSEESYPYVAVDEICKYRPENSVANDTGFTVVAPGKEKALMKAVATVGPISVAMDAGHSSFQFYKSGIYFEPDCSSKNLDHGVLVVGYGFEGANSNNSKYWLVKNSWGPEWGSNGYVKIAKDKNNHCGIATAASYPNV
T3 sequence (P07711 114-333): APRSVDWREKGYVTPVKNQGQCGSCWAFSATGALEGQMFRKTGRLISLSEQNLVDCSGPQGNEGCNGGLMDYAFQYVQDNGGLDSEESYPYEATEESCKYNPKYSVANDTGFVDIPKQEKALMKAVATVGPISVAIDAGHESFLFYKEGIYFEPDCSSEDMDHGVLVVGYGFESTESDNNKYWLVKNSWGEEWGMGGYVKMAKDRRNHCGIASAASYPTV
T2 sequence (P25774 115-331): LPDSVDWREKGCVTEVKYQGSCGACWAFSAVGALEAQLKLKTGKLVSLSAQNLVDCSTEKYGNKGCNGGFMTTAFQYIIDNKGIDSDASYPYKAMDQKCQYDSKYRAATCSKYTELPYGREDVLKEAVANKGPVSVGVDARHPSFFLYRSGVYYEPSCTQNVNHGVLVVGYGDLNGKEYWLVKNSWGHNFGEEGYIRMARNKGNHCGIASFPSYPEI

Substance: Cy5-Ala-Arg-Leu-Arg-AOMK [MP-pc1, Cy5-labeled broad spectrum (pan-specific) cathepsin probe]
- labeling of recombinant cathepsins L, V, B, S and K [1]: can label cathepsins L, V, B and S (10 nM) even at a 1 : 1 ratio
- kobs/I Cath-K [2]: 30,150 M^-1s^-1
- kobs/I Cath-S [3]: 202,500 M^-1s^-1
- kobs/I Cath-L [4]: 47,500 M^-1s^-1
- kobs/I Cath-B [5]: 265,000 M^-1s^-1
- kobs/I Cath-V [6]: 53,200 M^-1s^-1
- cathepsins labeled in MDA-MB-231 cells [7]: bound mostly to cathepsin B
- cathepsins labeled in HEK293T cells [8]: labeled both cathepsins L (25 kDa and 30 kDa) and B (30 kDa)
